Test results: patent publication US11858938B2, “Imidazo-fused heterocycles and uses thereof” (Ligand Pharmaceuticals Incorporated, priority 2015, dated 2024)

Target: T1, Recombinant human FLT3 (Homo sapiens, UniProt P36888)
T1 construct: His6 (C)
T1 sequence (P36888 27-993): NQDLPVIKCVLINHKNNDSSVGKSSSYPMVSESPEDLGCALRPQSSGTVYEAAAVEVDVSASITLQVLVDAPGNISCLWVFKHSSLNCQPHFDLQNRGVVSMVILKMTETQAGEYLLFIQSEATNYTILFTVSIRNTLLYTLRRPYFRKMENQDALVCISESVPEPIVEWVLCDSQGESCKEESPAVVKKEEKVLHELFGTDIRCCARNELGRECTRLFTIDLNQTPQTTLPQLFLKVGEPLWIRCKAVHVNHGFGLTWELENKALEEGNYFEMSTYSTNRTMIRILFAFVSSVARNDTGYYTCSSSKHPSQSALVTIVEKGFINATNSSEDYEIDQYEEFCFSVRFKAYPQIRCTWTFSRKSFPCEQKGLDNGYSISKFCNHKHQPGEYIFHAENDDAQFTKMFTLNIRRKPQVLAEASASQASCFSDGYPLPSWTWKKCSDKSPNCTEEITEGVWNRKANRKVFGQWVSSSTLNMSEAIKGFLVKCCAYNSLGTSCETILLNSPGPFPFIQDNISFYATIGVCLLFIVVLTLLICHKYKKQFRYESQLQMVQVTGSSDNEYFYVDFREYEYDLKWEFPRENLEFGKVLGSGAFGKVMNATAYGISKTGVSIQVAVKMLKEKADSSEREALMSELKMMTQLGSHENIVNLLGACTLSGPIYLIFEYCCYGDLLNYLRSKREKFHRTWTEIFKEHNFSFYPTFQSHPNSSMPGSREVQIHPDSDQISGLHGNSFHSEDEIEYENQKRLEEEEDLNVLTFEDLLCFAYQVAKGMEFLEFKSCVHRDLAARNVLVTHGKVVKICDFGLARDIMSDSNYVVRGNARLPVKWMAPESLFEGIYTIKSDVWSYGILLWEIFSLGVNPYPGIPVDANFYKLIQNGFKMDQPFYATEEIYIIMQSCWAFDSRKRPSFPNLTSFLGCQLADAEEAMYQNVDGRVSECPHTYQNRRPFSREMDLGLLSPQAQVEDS
Assay: Flt3 kinase inhibitory assay (radioisotope filtration binding, 33P-ATP)
Assay type: biochemical
Details: read-out: Flt3 inhibition IC50
Experimental: The assay is performed using traditional radioisotope filtration binding.
A base reaction buffer is prepared consisting of 20 mM Hepes (pH 7.5), 10 mM MgCl2, 1 mM EGTA, 0.02% Brij35, 0.02 mg/ml BSA, 0.1 mM […], 2 mM DTT, 1% DMSO. The peptide substrate abltide [[…]] is added to the base reaction buffer to yield a final concentration of 5 μM. Additional cofactors (1.5 mM CaCl2, 16 ug/ml Calmodulin, and 2 mM MnCl2) are added to the buffer/substrate solution. Recombinant human FLT3 (baculovirus expression system using a C-terminal His6-tag) is added to the solution and gently mixed. Test compounds are dissolved in DMSO and added to the buffer/kinase solution to yield a final concentration of 5 μM. […] The reaction is initiated by the addition of ^33P-ATP (specific activity […]) into the reaction mixture to a final concentration of 10 μM. The kinase reaction was incubated for 120 minutes at room temperature. The reactions are spotted onto P81 ion exchange paper (Whatman #3698-915) and the filter papers are extensively washed in 0.75% Phosphoric acid and beta emissions are measured.

IC50 | SMILES
110 pM | c1cc(-c2cn3cc(Nc4cc(CN5CCCC5)ccn4)nc3cn2)ccn1 [Compound 101]
250 pM | c1cc(-c2ccc3nc(Nc4cc(CN5CCCC5)ccn4)cn3n2)ccn1 [Compound 102]
